From patent US11197859B2 (AUTIFONY THERAPEUTICS LIMITED, priority 2010, dated 2021) come the findings set out here.

Molecules are shown by their SMILES.

This test has as its target T1, human Kv3.2 channels (hKv3.2) (Homo sapiens, UniProt Q96PR1).
T1 construct: expressed in transfected cells
T1 sequence (Q96PR1 1-638): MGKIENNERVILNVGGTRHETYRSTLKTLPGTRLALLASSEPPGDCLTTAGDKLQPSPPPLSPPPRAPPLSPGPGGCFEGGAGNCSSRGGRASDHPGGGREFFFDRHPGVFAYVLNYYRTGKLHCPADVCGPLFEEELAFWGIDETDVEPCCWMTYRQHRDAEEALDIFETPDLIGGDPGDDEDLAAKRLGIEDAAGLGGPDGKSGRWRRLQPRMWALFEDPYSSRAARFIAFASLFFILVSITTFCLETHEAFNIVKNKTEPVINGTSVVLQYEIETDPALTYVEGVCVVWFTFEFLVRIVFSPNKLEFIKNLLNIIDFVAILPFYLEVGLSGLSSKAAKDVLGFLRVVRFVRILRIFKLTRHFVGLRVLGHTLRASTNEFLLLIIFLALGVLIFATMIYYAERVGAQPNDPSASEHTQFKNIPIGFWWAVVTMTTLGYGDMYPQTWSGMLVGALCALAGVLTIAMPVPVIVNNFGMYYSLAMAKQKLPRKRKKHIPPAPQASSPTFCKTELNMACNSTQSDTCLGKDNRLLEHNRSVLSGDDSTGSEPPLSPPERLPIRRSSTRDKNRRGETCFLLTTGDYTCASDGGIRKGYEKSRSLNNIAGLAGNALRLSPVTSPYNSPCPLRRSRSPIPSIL
Put plainly: IonWorks Quattro electrophysiology, hKv3.2 currents, activation time constant (Tauact). The class given is cell-based. The note with it: hKv3.2, -15 mV pulse; compound 6.25 μM (concentration giving ~0.3 nA current). As for the experimental part:
The ability of the compounds of the disclosure to modulate the voltage-gated potassium channel subtypes Kv3.2/3.1 may be determined using the following assay.
To assess compound effects on human Kv3.2 channels (hKv3.2), a stable cell line expressing hKv3.2 was created by transfecting Chinese Hamster Ovary (CHO)-K1 cells with a pCIH5-hKv3.2 vector. Cells were cultured in DMEM/F12 medium supplemented by 10% Foetal Bovine Serum, 1× non-essential amino acids (Invitrogen) and 500 ug/ml of Hygromycin-B (Invitrogen). Cells were grown and maintained at 37° C. in a humidified environment containing 5% CO2 in air.
The day of the experiment, cells were removed from the incubator and the culture medium removed. Cells were washed with 5 ml of Dulbecco's PBS (DPBS) calcium and magnesium free and detached by the addition of 3 ml Versene (Invitrogen, Italy) followed by a brief incubation at 37° C. for 5 minutes. The flask was tapped to dislodge cells and 10 ml of DPBS containing calcium and magnesium was added to prepare a cell suspension. The cell suspension was then placed into a 15 ml centrifuge tube and centrifuged for 2 min at 1200 rpm. After centrifugation, the supernatant was removed and the cell pellet re-suspended in 4 ml of DPBS containing calcium and magnesium using a 5 ml pipette to break up the pellet. Cell suspension volume was then corrected to give a cell concentration for the assay of approximately 3 million cells per ml.
Experiments were conducted at room temperature using IonWorks Quattro™ planar array electrophysiology technology (Molecular Devices Corp.) with PatchPlate™ PPC. Stimulation protocols and data acquisition were carried out using a microcomputer (Dell Pentium 4). Planar electrode hole resistances(Rp) were determined by applying a 10 mV voltage step across each well. These measurements were performed before cell addition. […] Following this, amphotericin-B solution was added to the intracellular face of the electrode to achieve intracellular access. Cells were held at −70 mV. Leak subtraction was conducted in all experiments by applying 50 ms hyperpolarizing (10 mV) prepulses to evoke leak currents followed by a 20 ms period at the holding potential before test pulses. From the holding potential of −70 mV, a first test pulse to −15 mV was applied for 100 ms and following a further 100 ms at −70 mV, a second pulse to 40 mV was applied for 50 ms. Cells were then maintained for a further 100 ms at −100 mV and then a voltage ramp from −100 mV to 40 mV was applied over 200 ms. In all experiments, the test pulses protocol was performed in the absence (pre-read) and presence (post-read) of the test compound. Pre- and post-reads were separated by the compound addition followed by a 3 minute incubation.
The intracellular solution contained the following (in mM): K-gluconate 100, KCl 54, MgCl2 3.2, HEPES 5, adjusted to pH 7.3 with KOH. Amphotericin-B solution was prepared as 50 mg/ml stock solution in DMSO and diluted to a final working concentration of 0.1 mg/ml in intracellular solution.
The final assay dilution was 200 and the final compound concentrations were in the range 50 μM to 50 nM.
The recordings were analysed and filtered using both seal resistance (>20 MΩ) and peak current amplitude (>500 pA at the voltage step of 40 mV) in the absence of compound to eliminate unsuitable cells from further analysis. Kv3 channel-mediated outward currents were measured determined from the mean amplitude of the current over the final 10 ms of the −15 mV voltage pulse minus the mean baseline current at −70 mV over a 10 ms period just prior to the −15 mV step. This Kv3 channel currents following addition of the test compound were then compared with the currents recorded prior to compound addition. […] The normalised data were analysed using ActivityBase or Excel software.
For orientation: Patch clamp records ionic current or voltage across a cell membrane.

As to `CC[C@H]1NC(=O)N(c2ccc(Oc3ccc(C)c(OC)c3)nc2)C1=O` [RE1, (5R)-5-ethyl-3-(6-{[4-methyl-3-(methyloxy)phenyl]oxy}-3-pyridinyl)-2,4-imidazolidinedione], the “Tauact mean” value came out at 9.9 ms.
